# Experiments:
# [1] = biological target: T1, Ephrin type-B receptor 6 (Homo sapiens) (UniProt O15197); test: Competitive binding affinity to human EPHB6 at 500 nM incubated for 1 hr by qPCR analysis relative to control
# T1 sequence (whole entry): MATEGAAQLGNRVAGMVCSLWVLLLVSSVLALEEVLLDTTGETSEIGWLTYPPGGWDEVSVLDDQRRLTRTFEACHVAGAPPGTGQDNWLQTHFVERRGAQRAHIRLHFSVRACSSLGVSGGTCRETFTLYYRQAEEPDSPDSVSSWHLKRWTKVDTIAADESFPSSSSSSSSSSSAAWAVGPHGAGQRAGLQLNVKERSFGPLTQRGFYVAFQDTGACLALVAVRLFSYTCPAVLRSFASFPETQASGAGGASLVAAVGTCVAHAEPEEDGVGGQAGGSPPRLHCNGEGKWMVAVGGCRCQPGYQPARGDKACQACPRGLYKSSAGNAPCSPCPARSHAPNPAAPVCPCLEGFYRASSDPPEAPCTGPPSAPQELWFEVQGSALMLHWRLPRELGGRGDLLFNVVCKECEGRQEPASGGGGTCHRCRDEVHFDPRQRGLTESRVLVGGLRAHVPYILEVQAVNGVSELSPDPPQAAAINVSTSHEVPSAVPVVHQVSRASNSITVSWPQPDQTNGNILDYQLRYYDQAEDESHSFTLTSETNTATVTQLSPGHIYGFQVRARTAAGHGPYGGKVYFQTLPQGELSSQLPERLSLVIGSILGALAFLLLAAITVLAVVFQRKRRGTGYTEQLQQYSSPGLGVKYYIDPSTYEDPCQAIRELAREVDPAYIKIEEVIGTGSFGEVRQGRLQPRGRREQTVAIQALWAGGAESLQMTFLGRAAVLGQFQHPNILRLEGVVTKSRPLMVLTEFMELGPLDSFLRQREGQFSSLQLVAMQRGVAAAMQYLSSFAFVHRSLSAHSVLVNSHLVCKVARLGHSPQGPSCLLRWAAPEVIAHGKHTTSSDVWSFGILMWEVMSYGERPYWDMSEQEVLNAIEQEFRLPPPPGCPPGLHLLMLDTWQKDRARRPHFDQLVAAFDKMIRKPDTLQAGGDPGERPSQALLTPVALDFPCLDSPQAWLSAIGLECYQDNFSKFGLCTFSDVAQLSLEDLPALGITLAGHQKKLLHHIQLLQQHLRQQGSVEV
# [2] = biological target: Platelet-derived growth factor receptor beta (Homo sapiens) (UniProt P09619); test: Inhibition of human PDGFRbeta binding to streptavidin-coated magnetic beads immobilized biotinylated ligand at 500 nM incubated for 1 hr by qPCR analysis relative to control
# [3] = Metabolic stability in human liver microsomes assessed as intrinsic clearance at 3 uM measured upto 50 mins by LC-MS analysis; format: ADME, Microsome
# [4] = Metabolic stability in mouse liver microsomes assessed as intrinsic clearance at 3 uM measured upto 50 mins by LC-MS analysis; format: ADME, Microsome
# [5] = Kinetic aqueous solubility of compound at pH 7.4 at 500 uM incubated for 90 mins by spectrophotometry analysis; format: physicochemical; settings: buffer, read-out: Kinetic_solubility
# [6] = biological target: Receptor-type tyrosine-protein kinase FLT3 (Homo sapiens) (UniProt P36888); test: Inhibition of autoinhibited human FLT3 binding to streptavidin-coated magnetic beads immobilized biotinylated ligand at 500 nM incubated for 1 hr by qPCR analysis relative to control
# [7] = biological target: T2, Macrophage colony-stimulating factor 1 receptor (Homo sapiens, UniProt P07333); test: Inhibition of CSF1R (unknown origin) using FRET-peptide as substrate incubated in presence of ATP by FRET based Z-LYTE assay
# [8] = biological target: Platelet-derived growth factor receptor alpha (Homo sapiens) (UniProt P16234); test: Inhibition of human PDGFRalpha binding to streptavidin-coated magnetic beads immobilized biotinylated ligand at 500 nM incubated for 1 hr by qPCR analysis relative to control
# [9] = biological target: Mast/stem cell growth factor receptor Kit (Homo sapiens) (UniProt P10721); test: Inhibition of autoinhibited wild type human KIT binding to streptavidin-coated magnetic beads immobilized biotinylated ligand at 500 nM incubated for 1 hr by qPCR analysis relative to control
# [10] = biological target: T2, Macrophage colony-stimulating factor 1 receptor; test: Binding affinity to autoinhibited form of CSF1R (unknown origin) assessed as dissociation constant incubated for 1 hr by qPCR based Hill equation analysis
# [11] = biological target: T2, Macrophage colony-stimulating factor 1 receptor; test: Binding affinity to non-autoinhibited form of CSF1R (unknown origin) assessed as dissociation constant incubated for 1 hr by qPCR based Hill equation analysis
# [12] = biological target: T3, Macrophage colony-stimulating factor 1 receptor (Mus musculus) (UniProt P09581); test: Inhibition of CSF1-induced CSF1R signalling in mouse BMDM cells assessed as reduction in ERK1/2 phosphorylation by measuring fold change preincubated for 30 mins followed by CSF1 addition and measured after 10 mins relative to pexidartinib; format: cell-based; settings: time 40.0 min
# T3 sequence (whole entry): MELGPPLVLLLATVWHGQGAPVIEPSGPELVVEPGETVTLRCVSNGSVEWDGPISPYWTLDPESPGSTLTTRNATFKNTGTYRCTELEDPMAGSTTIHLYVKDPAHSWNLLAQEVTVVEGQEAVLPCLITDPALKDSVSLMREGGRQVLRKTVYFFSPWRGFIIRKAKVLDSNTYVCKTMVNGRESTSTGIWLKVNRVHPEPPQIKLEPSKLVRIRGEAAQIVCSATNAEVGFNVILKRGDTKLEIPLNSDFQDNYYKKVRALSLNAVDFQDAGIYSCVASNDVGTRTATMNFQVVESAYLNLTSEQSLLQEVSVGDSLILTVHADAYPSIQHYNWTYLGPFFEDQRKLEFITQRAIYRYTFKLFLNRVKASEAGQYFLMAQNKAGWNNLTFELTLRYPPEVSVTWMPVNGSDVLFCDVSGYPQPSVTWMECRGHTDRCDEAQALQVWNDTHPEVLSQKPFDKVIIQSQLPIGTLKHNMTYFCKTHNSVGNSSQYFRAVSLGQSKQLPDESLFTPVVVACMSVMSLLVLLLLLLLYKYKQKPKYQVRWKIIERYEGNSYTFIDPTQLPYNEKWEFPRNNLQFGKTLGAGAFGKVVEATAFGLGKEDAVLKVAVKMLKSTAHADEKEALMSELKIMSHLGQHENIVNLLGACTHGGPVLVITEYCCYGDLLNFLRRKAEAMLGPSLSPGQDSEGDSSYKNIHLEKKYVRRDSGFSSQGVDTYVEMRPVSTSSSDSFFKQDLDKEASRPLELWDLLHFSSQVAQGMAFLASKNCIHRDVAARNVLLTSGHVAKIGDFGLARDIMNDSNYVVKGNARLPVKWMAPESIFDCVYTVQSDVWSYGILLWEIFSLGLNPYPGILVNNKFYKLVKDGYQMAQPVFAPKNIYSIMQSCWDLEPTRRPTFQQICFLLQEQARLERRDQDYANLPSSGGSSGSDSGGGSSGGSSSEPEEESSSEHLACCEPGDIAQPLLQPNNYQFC
# T2 sequence (P07333 whole entry): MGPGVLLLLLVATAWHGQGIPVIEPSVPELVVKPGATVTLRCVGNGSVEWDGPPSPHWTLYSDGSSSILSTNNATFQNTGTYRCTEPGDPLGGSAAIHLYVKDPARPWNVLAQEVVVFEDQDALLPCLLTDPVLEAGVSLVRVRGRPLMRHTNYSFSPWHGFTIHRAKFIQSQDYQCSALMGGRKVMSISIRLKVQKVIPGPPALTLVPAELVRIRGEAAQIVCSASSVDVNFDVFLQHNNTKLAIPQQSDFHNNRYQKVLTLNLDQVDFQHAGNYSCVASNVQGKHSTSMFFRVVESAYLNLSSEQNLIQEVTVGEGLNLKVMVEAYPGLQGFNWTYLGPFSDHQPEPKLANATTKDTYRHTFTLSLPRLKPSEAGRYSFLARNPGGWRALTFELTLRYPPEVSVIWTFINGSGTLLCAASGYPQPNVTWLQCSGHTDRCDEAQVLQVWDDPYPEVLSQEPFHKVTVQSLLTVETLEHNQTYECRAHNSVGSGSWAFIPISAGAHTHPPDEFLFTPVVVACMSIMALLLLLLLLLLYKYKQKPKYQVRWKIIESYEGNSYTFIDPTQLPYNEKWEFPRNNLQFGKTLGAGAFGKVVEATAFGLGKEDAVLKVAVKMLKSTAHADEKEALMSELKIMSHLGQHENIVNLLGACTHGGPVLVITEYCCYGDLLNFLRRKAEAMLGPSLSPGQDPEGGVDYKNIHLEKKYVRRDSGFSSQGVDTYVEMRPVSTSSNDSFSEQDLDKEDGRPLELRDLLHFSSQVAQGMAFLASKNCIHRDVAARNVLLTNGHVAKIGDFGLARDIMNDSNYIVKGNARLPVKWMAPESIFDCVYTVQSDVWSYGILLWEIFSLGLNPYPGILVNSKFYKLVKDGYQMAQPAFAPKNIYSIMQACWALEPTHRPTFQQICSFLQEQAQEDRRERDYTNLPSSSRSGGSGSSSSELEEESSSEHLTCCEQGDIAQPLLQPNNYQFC
# Sequence of Receptor-type tyrosine-protein kinase FLT3 (Homo sapiens) (P36888 whole entry): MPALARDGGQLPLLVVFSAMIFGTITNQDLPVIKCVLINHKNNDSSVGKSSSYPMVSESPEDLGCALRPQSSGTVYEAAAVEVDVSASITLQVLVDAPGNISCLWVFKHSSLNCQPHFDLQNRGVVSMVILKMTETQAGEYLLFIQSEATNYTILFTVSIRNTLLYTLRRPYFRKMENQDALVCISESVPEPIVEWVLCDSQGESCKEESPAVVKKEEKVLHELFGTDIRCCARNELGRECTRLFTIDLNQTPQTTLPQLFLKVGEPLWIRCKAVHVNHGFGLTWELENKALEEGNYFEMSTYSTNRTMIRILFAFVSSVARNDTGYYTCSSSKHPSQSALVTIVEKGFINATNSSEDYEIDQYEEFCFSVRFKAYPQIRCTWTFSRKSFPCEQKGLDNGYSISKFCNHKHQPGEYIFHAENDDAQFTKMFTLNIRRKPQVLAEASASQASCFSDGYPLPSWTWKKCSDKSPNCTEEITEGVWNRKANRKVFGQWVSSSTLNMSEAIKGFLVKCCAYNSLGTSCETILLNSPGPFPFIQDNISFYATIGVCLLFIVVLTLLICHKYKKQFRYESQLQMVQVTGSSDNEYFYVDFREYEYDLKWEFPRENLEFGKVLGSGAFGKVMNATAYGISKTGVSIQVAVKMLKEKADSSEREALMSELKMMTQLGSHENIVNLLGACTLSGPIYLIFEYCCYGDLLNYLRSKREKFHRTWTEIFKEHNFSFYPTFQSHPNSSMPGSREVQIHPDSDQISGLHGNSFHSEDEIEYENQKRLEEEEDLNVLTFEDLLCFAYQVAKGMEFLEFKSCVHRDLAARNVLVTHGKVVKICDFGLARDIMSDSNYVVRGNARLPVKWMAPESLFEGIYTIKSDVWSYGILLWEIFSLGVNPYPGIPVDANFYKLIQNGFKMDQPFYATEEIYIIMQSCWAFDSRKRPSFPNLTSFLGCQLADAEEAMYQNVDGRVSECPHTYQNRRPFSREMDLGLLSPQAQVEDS
# Sequence of Platelet-derived growth factor receptor beta (Homo sapiens) (P09619 whole entry): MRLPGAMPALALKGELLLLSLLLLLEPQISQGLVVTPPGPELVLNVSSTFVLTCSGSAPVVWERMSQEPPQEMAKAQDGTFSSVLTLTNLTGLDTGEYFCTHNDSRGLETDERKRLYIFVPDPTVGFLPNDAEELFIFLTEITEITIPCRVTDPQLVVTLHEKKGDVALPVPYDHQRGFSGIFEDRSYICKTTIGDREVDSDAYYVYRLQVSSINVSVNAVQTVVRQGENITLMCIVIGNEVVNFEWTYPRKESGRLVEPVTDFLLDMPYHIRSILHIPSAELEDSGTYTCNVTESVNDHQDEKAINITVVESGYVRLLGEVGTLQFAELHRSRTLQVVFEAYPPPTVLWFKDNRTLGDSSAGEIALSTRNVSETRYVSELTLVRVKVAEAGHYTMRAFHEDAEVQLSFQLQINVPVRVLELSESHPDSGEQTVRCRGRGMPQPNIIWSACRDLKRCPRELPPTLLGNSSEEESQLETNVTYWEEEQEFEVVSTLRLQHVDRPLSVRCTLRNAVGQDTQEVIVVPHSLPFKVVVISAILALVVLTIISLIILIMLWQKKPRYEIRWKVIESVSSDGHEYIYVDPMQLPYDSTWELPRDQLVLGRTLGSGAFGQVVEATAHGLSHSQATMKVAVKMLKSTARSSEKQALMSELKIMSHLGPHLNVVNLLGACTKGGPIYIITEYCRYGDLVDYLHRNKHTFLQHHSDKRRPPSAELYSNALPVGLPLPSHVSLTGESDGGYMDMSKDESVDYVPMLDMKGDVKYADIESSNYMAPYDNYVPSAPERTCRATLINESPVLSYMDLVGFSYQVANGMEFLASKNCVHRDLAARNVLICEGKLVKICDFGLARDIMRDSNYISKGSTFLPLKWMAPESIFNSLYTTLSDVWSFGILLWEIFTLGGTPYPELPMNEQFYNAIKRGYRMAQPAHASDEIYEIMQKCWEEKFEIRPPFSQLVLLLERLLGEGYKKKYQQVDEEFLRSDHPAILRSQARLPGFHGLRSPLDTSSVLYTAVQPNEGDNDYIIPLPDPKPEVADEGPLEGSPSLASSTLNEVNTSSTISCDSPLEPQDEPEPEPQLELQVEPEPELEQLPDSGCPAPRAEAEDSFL
# Sequence of Mast/stem cell growth factor receptor Kit (Homo sapiens) (P10721 whole entry): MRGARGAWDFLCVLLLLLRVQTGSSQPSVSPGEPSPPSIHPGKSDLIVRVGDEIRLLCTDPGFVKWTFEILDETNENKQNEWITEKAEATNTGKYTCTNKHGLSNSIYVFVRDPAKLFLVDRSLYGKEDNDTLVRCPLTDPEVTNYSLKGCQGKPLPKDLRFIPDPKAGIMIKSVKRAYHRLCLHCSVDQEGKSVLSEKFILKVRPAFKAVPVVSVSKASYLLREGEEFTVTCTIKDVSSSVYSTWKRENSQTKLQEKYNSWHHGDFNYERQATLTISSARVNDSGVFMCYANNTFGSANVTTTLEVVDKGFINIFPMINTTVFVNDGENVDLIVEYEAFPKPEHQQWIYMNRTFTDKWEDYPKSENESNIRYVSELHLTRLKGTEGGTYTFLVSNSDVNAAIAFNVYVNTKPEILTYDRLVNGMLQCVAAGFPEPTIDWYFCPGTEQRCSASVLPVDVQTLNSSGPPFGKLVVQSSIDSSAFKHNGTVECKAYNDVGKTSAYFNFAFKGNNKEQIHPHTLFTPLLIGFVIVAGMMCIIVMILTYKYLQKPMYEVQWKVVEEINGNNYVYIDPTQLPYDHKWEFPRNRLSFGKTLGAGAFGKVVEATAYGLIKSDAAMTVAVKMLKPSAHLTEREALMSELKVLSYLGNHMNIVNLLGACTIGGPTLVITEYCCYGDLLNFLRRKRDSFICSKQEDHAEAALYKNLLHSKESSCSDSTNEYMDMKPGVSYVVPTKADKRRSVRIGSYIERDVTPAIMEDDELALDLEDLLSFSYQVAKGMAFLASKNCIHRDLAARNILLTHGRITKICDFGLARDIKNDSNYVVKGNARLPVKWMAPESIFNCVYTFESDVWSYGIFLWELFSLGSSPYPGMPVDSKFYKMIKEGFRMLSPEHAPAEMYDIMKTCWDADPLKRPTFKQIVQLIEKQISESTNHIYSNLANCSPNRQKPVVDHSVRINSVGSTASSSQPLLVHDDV
structure (smiles),measurement,setting,value
CN(CC1CCCC1)c1ncnc2[nH]c(-c3ccc(CO)cc3)nc12,Activity,[1],87%
same,inhibition,[2],12%
same,CLint,[3],36.4 µL/min/mg
same,CLint,[4],243 µL/min/mg
same,"solubility kinetic at […], 500 µM",[5],3.5 µM
same,inhibition,[6],12%
same,IC50,[7],0.0005 µM
same,inhibition,[8],12%
same,inhibition,[9],12%
same,Kd,[10],0.017 µM
same,Kd,[11],0.22 µM
same,fold change (FC),[12],0.4
